Experimental data as given in US11773078B2, “Furin inhibitors” (Glaxosmithkline Intellectual Property Development Limited, priority 2018, dated 2023).
Counter-ions that a name gives are not always drawn.

Tests used:
[1] = molecular target: T1, Furin (108-574-Tev-Flag-His) enzyme (Homo sapiens, UniProt P09958); assay: Furin enzyme assay; assay type: biochemical
T1 construct: Furin (108-574-Tev-Flag-His) enzyme was expressed and purified from CHO cells; TEV cleavage site (C); FLAG (C); His (C); made in house; host or cells: CHO cells
T1 sequence (P09958 108-574): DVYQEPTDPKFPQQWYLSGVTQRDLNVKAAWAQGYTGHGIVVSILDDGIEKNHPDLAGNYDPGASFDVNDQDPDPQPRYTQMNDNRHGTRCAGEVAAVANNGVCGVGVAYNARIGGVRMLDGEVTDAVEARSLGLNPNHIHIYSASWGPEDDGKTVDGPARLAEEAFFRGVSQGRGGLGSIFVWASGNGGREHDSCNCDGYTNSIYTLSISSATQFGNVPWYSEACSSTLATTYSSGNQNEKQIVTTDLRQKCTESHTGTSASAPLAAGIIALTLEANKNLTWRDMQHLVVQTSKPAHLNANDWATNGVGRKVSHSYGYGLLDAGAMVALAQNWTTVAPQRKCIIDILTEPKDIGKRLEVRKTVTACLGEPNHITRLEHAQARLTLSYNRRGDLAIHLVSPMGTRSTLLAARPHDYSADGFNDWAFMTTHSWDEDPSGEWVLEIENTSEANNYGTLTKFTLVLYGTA
Procedure, shortened: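 Compounds ran as 11-point threefold dilutions (0.00017–10 μM final) against 40 pM furin, purified from CHO cells, for 2 h at room temperature. Buffer: 100 mM HEPES pH7.5 with 1 mM CaCl2 and 0.005% Triton X-100. Envision readout. Four-parameter curve gives pXC50.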

[2] = molecular target: T2, furin (endogenous protease) in U20S cells (Homo sapiens, UniProt P09958); assay: Furin cell-based assay (image-based, Golgi-targeted GFP with BMP10 furin/PCSK cleavage site); settings: 24-hour incubation, read-out: furin golgi cell pXC50 (converted);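 further: Read-out is mean GFP fluorescence of Golgi puncta per cell by high-content imaging, retained when furin inhibited, over an eleven-point 0.00017–10 µM series, four-parameter fit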
T2 construct: the endogenous protease cleaves GFP; endogenous in cells; host or cells: U2OS cells transduced with a BacMam reporter
T2 sequence (P09958 108-794): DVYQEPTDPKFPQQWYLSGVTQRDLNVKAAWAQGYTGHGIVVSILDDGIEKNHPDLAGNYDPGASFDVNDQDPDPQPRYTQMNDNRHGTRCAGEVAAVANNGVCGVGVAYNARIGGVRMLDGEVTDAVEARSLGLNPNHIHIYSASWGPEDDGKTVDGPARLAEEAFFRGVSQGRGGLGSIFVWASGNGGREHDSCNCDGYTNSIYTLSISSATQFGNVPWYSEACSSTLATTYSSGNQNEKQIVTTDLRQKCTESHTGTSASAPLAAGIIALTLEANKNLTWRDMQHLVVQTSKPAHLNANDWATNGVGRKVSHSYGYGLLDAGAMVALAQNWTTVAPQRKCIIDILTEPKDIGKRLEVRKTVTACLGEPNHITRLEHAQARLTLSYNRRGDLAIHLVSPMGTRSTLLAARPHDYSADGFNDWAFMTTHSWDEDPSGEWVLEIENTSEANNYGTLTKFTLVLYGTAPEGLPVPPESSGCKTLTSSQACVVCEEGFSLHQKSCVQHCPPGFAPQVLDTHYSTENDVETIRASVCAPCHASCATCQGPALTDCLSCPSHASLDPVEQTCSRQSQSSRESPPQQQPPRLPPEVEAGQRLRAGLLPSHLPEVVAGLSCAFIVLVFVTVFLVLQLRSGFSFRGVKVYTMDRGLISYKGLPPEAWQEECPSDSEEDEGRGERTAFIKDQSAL

Question: Which results are given for `CC(=O)NCC1CCN(Cc2cc(Oc3cnc(N4CCN(C(C)CCS(C)(=O)=O)CC4)nc3)nc(-c3cc(F)cc(Cl)c3)c2)CC1` (stereo not shown) [Example 372, N-((1-((2-(3-Chloro-5-fluorophenyl)-6-((2-(4-(4-(methylsulfonyl)butan-2-yl)piperazin-1-yl)pyrimidin-5-yl)oxy)pyridin-4-yl)methyl)piperidin-4-yl)methyl)acetamide]?
Answer: furin enzyme pIC50 [1]: 8.8; EC50 [2]: 3.98 nM

Question: For `CNC(=O)NCC1CCN(Cc2cc(Oc3cnc(N4CCN(C(C)CCS(C)(=O)=O)CC4)nc3)nc(-c3cc(F)cc(Cl)c3)c2)CC1` (stereo not shown) [Example 373, 1-((1-((2-(3-chloro-5-fluorophenyl)-6-((2-(4-(4-(methylsulfonyl)butan-2-yl)piperazin-1-yl)pyrimidin-5-yl)oxy)pyridin-4-yl)methyl)piperidin-4-yl)methyl)-3-methylurea], which “furin enzyme pIC50” value [1] is on record?
Answer: Its value is 8.9.

Question: And the EC50 [2]?
Answer: Its EC50 is 5.01 nM.

Question: With `CN1CCCN(c2ncc(Oc3cc(CN4CCC(CC(=O)O)CC4)cc(-c4cc(F)cc(Cl)c4)n3)cn2)CC1` [Example 374, 2-(1-((2-(3-chloro-5-fluorophenyl)-6-((2-(4-methyl-1,4-diazepan-1-yl)pyrimidin-5-yl)oxy)pyridin-4-yl)methyl)piperidin-4-yl)acetic acid] as the compound, how does the “furin enzyme pIC50” value [1] read?
Answer: The value was 7.9.

Question: What about the EC50 [2] of the same compound?
Answer: Its EC50 is 158 nM.

Question: Which results are given for `CC(C)N(c1cnc(N2CCN(C)CC2)nc1)c1cc(CN2CCC(CC(=O)O)CC2)cc(-c2cc(Cl)cc(Cl)c2)n1` [Example 375, 2-(1-((2-(3,5-Dichlorophenyl)-6-(isopropyl(2-(4-methylpiperazin-1-yl)pyrimidin-5-yl)amino)pyridin-4-yl)methyl)piperidin-4-yl)acetic acid]?
Answer: furin enzyme pIC50 [1]: 7.9; EC50 [2]: 251 nM

Question: Which results are given for `CN1CCN(c2ncc(Oc3cc(-c4cc(Cl)cc(Cl)c4)cc(CN4CCC(CC(=O)O)CC4)c3F)cn2)CC1` [Example 376, 2-(1-((3′,5′-dichloro-4-fluoro-5-((2-(4-methylpiperazin-1-yl)pyrimidin-5-yl)oxy)-[1,1′-biphenyl]-3-yl)methyl)piperidin-4-yl)acetic acid]?
Answer: furin enzyme pIC50 [1]: 8.7; EC50 [2]: 25.1 nM

Question: With `CN1CCN(c2ccc(Oc3nc(-c4cc(Cl)cc(Cl)c4)cc(CN4CCC(CC(=O)O)CC4)c3F)cn2)CC1` [Example 377, 2-(1-((6-(3,5-Dichlorophenyl)-3-fluoro-2-((6-(4-methylpiperazin-1-yl)pyridin-3-yl)oxy)pyridin-4-yl)methyl)piperidin-4-yl)acetic acid, 4 hydrochloride] as the compound, how does the “furin enzyme pIC50” value [1] read?
Answer: Its value is 8.6.

Question: And the EC50 [2]?
Answer: The EC50 was 25.1 nM.

Question: `CN1C2CCC1CN(c1ncc(Oc3nc(-c4cc(Cl)cc(Cl)c4)cc(CN4CCC(CC(=O)O)CC4)c3F)cn1)C2` [Example 378, 2-(1-((6-(3,5-dichlorophenyl)-3-fluoro-2-((2-(8-methyl-3,8-diazabicyclo[3.2.1]octan-3-yl)pyrimidin-5-yl)oxy)pyridin-4-yl)methyl)piperidin-4-yl)acetic acid] was tested. Which IC50 ([1]; read-out: furin enzyme pIC50 (converted)) did it give?
Answer: Its IC50 is 2 nM.

Question: And the EC50 [2]?
Answer: The EC50 was 6.31 nM.

Question: With `CN1CCN(c2ncc(Oc3nc(-c4cc(Cl)cc(Cl)c4)cc(CN4CCC(CC(=O)O)CC4)c3F)cn2)CC1` [Example 379, 2-(1-((6-(3,5-dichlorophenyl)-3-fluoro-2-((2-(4-methylpiperazin-1-yl)pyrimidin-5-yl)oxy)pyridin-4-yl)methyl)piperidin-4-yl)acetic acid] as the compound, how does the “furin enzyme pIC50” value [1] read?
Answer: Its value is 8.7.

Question: What about the EC50 [2] of the same compound?
Answer: The EC50 was 20 nM.

Question: With `Cc1nc(N2CCN(C)CC2)ncc1Oc1nc(-c2cc(Cl)cc(Cl)c2)cc(CN2CCC(CC(=O)O)CC2)c1F` [Example 380, 2-(1-((6-(3,5-dichlorophenyl)-3-fluoro-2-((4-methyl-2-(4-methylpiperazin-1-yl)pyrimidin-5-yl)oxy)pyridin-4-yl)methyl)piperidin-4-yl)acetic acid] as the compound, how does the “furin enzyme pIC50” value [1] read?
Answer: Its value is 9.6.

Question: And the EC50 [2]?
Answer: Its EC50 is 63.1 nM.

Question: For `CC(=O)NCC1CCN(Cc2cc(-c3cc(Cl)cc(Cl)c3)nc(Oc3cnc(N4CCN(CCC(C)C(=O)O)CC4)nc3)c2F)CC1` (stereo not shown) [Example 381, 4-(4-(5-((4-((4-(acetamidomethyl)piperidin-1-yl)methyl)-6-(3,5-dichlorophenyl)-3-fluoropyridin-2-yl)oxy)pyrimidin-2-yl)piperazin-1-yl)-2-methylbutanoic acid], which “furin enzyme pIC50” value [1] is on record?
Answer: Its value is 8.9.

Question: What about the EC50 [2] of the same compound?
Answer: Its EC50 is 10 nM.

Question: Which “furin enzyme pIC50” value [1] does the source give for `O=C(O)CC1CCN(Cc2cc(-c3cc(Cl)cc(Cl)c3)nc(Oc3cnc(N4CC5CCC(C4)N5)nc3)c2F)CC1` [Example 382, 2-(1-((2-((2-(3,8-diazabicyclo[3.2.1]octan-3-yl)pyrimidin-5-yl)oxy)-6-(3,5-dichlorophenyl)-3-fluoropyridin-4-yl)methyl)piperidin-4-yl)acetic acid] here?
Answer: The value was 8.6.

Question: And the EC50 [2]?
Answer: Its EC50 is 6.31 nM.

Question: `Cc1nc(N2CCN(C)CC2)ccc1Oc1nc(-c2cc(Cl)cc(Cl)c2)cc(CN2CCC(CC(=O)O)CC2)c1F` [Example 383, 2-(1-((6-(3,5-dichlorophenyl)-3-fluoro-2-((2-methyl-6-(4-methylpiperazin-1-yl)pyridin-3-yl)oxy)pyridin-4-yl)methyl)piperidin-4-yl)acetic acid] was tested. Which “furin enzyme pIC50” value [1] did it give?
Answer: The value was 8.4.

Question: What about the EC50 [2] of the same compound?
Answer: The EC50 was 63.1 nM.

Question: What does the source list for `CN1CCN(c2ccc(Oc3nc(-c4cc(Cl)cc(Cl)c4)cc(CN4CCC(CC(=O)O)CC4)c3F)nn2)CC1` [Example 384, 2-(1-((6-(3,5-dichlorophenyl)-3-fluoro-2-((6-(4-methylpiperazin-1-yl)pyridazin-3-yl)oxy)pyridin-4-yl)methyl)piperidin-4-yl)acetic acid]?
Answer: furin enzyme pIC50 [1]: 8.4; EC50 [2]: 25.1 nM

Question: Which “furin enzyme pIC50” value [1] does the source give for `COC(=O)CCN1CCN(c2ccc(Oc3cc(CN4CCC(CNC(C)=O)CC4)cc(-c4cc(Cl)cc(Cl)c4)n3)cn2)CC1` [Example 385, Methyl 3-(4-(5-((4-((4-(Acetamidomethyl)piperidin-1-yl)methyl)-6-(3,5-dichlorophenyl)pyridin-2-yl)oxy)pyridin-2-yl)piperazin-1-yl)propanoate] here?
Answer: The value was 8.4.

Question: What about the EC50 [2] of the same compound?
Answer: The EC50 was 12.6 nM.

Question: What does the source list for `Cc1c(CN2CCC(CC(=O)O)CC2)cc(-c2cc(Cl)cc(Cl)c2)nc1Oc1ccc(N2CCN(C)CC2)nc1` [Example 386, 2-(1-((6-(3,5-Dichlorophenyl)-3-methyl-2-((6-(4-methylpiperazin-1-yl)pyridin-3-yl)oxy)pyridin-4-yl)methyl)piperidin-4-yl)acetic acid, 4 hydrochloride]?
Answer: furin enzyme pIC50 [1]: 8.4; EC50 [2]: 10 nM

Question: For `O=C(O)CC1CCN(Cc2cc(Oc3cnc(N4CCN(Cc5cnn[nH]5)CC4)nc3)nc(-c3cc(Cl)cc(Cl)c3)c2)CC1` [Example 387, 2-(1-((2-((2-(4-((1H-1,2,3-Triazol-5-yl)methyl)piperazin-1-yl)pyrimidin-5-yl)oxy)-6-(3,5-dichlorophenyl)pyridin-4-yl)methyl)piperidin-4-yl)acetic acid], which “furin enzyme pIC50” value [1] is on record?
Answer: Its value is 8.5.

Question: What about the EC50 [2] of the same compound?
Answer: The EC50 was 25.1 nM.

Question: What does the source list for `CN1CCN(c2ncc(N(C)c3cc(CN4CCC(CC(=O)O)CC4)cc(-c4cc(Cl)cc(Cl)c4)n3)cn2)CC1` [Example 388, 2-(1-((2-(3,5-Dichlorophenyl)-6-(methyl(2-(4-methylpiperazin-1-yl)pyrimidin-5-yl)amino)pyridin-4-yl)methyl)piperidin-4-yl)acetic acid, 4 hydrochloride]?
Answer: furin enzyme pIC50 [1]: 8.1; EC50 [2]: 50.1 nM

Question: With `CCN(c1cnc(N2CCN(C)CC2)nc1)c1cc(CN2CCC(CC(=O)O)CC2)cc(-c2cc(Cl)cc(Cl)c2)n1` [Example 389, 2-(1-((2-(3,5-Dichlorophenyl)-6-(ethyl(2-(4-methylpiperazin-1-yl)pyrimidin-5-yl)amino)pyridin-4-yl)methyl)piperidin-4-yl)acetic acid] as the compound, how does the “furin enzyme pIC50” value [1] read?
Answer: Its value is 8.2.

Question: What about the EC50 [2] of the same compound?
Answer: The EC50 was 63.1 nM.

Question: `CC(=O)NCC1CCN(Cc2cc(Oc3cnc(N4CCN(CCC(N)=O)CC4)cn3)nc(-c3cc(Cl)cc(Cl)c3)c2)CC1` [Example 391, 3-(4-(5-((4-((4-(acetamidomethyl)piperidin-1-yl)methyl)-6-(3,5-dichlorophenyl)pyridin-2-yl)oxy)pyrazin-2-yl)piperazin-1-yl)propanamide] was tested. Which “furin enzyme pIC50” value [1] did it give?
Answer: The value was 8.7.

Question: What about the EC50 [2] of the same compound?
Answer: The EC50 was 6.31 nM.

Question: Which “furin enzyme pIC50” value [1] does the source give for `CCC(=O)NCC1CCN(Cc2cc(Oc3cnc(N4CCN(CCC(C)C(=O)O)CC4)cn3)nc(-c3cc(Cl)cc(Cl)c3)c2)CC1` (stereo not shown) [Example 392, 4-(4-(5-((6-(3,5-dichlorophenyl)-4-((4-(propionamidomethyl)piperidin-1-yl)methyl)pyridin-2-yl)oxy)pyrazin-2-yl)piperazin-1-yl)-2-methylbutanoic acid] here?
Answer: Its value is 9.

Question: What about the EC50 [2] of the same compound?
Answer: Its EC50 is 15.8 nM.

Question: Which results are given for `CC(=O)NCC1CCN(Cc2cc(Oc3cnc(N4CCN(C(C)CO)CC4)cn3)nc(-c3cc(Cl)cc(Cl)c3)c2)CC1` (stereo not shown) [Example 393, N-((1-((2-(3,5-dichlorophenyl)-6-((5-(4-(1-hydroxypropan-2-yl)piperazin-1-yl)pyrazin-2-yl)oxy)pyridin-4-yl)methyl)piperidin-4-yl)methyl)acetamide]?
Answer: furin enzyme pIC50 [1]: 9.2; EC50 [2]: 2.51 nM

Question: `CNC(=O)NCC1CCN(Cc2cc(Oc3cnc(N4CCN(C)CC4)cn3)nc(-c3cc(Cl)cc(Cl)c3)c2)CC1` [Example 394, 1-((1-((2-(3,5-dichlorophenyl)-6-((5-(4-methylpiperazin-1-yl)pyrazin-2-yl)oxy)pyridin-4-yl)methyl)piperidin-4-yl)methyl)-3-methylurea] was tested. Which “furin enzyme pIC50” value [1] did it give?
Answer: The value was 9.

Question: And the EC50 [2]?
Answer: Its EC50 is 6.31 nM.

Question: What does the source list for `COC(=O)NCC1CCN(Cc2cc(Oc3cnc(N4CCN(C)CC4)cn3)nc(-c3cc(Cl)cc(Cl)c3)c2)CC1` [Example 395, methyl ((1-((2-(3,5-dichlorophenyl)-6-((5-(4-methylpiperazin-1-yl)pyrazin-2-yl)oxy)pyridin-4-yl)methyl)piperidin-4-yl)methyl)carbamate]?
Answer: furin enzyme pIC50 [1]: 9.2; EC50 [2]: 31.6 nM
